Results published in ChEMBL document CHEMBL1201862, “PubChem BioAssay data set” (2004).
Activity calls are given as the source filed them.

Assays:
[1] = biological target: Induced myeloid leukemia cell differentiation protein Mcl-1 (Homo sapiens, UniProt Q07820); type: functional
[2] = biological target: T1, SUMO-activating enzyme (Homo sapiens, UniProt Q9UBT2); assay: SUMOylation inhibitor hit validation, confirmation, SUMOylation inhibitor project, biochemical, AlphaScreen (AID 2018); type: functional
[3] = biological target: T1, SUMO-activating enzyme; assay: inhibitors of in vitro SUMOylation cascade, primary screen, biochemical, HTRF, uHTS (AID 2006); type: protein-complex assay
[4] = biological target: T2, RNA-binding protein pos-1 (Caenorhabditis elegans, UniProt G5EF15); assay: inhibitors of POS-1/mex-3 RNA binding, dose response, biochemical, fluorescence polarization (AID 1964);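 further: purified POS-1 fused to maltose binding protein made in E. coli; potency of compounds blocking POS-1 binding to fluorescent RNA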
T2 sequence (G5EF15 whole entry): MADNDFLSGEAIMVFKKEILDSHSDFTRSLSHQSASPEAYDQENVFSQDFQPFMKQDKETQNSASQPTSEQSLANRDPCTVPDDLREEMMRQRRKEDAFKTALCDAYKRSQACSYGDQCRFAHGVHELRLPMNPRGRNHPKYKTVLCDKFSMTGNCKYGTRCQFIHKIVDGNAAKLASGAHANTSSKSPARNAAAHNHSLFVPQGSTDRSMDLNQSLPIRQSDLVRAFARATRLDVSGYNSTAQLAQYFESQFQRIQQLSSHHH

[5] = biological target: T3, Zinc finger protein mex-5 (Caenorhabditis elegans, UniProt Q9XUB2); assay: MEX-5/TCR-2 RNA interaction inhibitors, dose response, biochemical, C. elegans, fluorescence polarization (AID 1960)
T3 sequence (Q9XUB2 whole entry): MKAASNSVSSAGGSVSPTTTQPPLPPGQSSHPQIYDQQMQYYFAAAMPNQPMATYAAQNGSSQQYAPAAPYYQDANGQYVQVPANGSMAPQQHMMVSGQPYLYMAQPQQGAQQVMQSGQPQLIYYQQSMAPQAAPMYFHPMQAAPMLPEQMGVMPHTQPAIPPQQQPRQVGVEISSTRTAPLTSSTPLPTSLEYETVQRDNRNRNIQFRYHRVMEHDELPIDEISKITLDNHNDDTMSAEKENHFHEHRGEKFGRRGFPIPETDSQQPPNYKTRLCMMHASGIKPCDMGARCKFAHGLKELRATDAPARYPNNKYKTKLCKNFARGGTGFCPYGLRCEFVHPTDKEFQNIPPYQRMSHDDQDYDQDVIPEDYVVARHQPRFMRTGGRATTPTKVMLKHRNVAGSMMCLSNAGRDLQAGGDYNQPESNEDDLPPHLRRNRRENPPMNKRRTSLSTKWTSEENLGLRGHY

[6] = biological target: T4, Ubiquitin-conjugating enzyme E2 N (Homo sapiens, UniProt P61088); type: functional
T4 sequence (P61088 whole entry): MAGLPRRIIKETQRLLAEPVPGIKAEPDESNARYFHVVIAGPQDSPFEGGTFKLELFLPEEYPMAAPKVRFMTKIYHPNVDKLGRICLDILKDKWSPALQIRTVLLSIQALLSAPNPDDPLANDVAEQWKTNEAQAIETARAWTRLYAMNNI

[7] = biological target: T4, Ubiquitin-conjugating enzyme E2 N; type: functional; remark: listed apart in the source
[8] = biological target: T5, Bcl-2-related protein A1 (Mus musculus, UniProt Q07440); type: functional;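 further: confirmatory dose–response counterscreen on Bfl-1, used to check hits from a UBC13 polyubiquitin inhibitor campaign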
T5 sequence (Q07440 whole entry): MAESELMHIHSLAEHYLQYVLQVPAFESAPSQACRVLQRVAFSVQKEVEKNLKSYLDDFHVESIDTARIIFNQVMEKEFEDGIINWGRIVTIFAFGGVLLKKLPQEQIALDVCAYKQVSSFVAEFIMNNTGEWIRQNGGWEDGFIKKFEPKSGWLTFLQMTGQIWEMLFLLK

[9] = biological target: T6, Heat shock factor protein 1 (Mus musculus, UniProt P38532); assay: HSF1 potentiators in luciferase reporter cells, confirmation, cell-based, NIH3T3, luminescence, dose retest (AID 435004); type: functional;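 further: stress induced by proteasome inhibitor MG132 added 30 min after compound; luciferase reporter driven by HSF1 response element in NIH3T3 cells; actives raise luminescence as potentiators of the MG132 stress response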
T6 sequence (P38532 whole entry): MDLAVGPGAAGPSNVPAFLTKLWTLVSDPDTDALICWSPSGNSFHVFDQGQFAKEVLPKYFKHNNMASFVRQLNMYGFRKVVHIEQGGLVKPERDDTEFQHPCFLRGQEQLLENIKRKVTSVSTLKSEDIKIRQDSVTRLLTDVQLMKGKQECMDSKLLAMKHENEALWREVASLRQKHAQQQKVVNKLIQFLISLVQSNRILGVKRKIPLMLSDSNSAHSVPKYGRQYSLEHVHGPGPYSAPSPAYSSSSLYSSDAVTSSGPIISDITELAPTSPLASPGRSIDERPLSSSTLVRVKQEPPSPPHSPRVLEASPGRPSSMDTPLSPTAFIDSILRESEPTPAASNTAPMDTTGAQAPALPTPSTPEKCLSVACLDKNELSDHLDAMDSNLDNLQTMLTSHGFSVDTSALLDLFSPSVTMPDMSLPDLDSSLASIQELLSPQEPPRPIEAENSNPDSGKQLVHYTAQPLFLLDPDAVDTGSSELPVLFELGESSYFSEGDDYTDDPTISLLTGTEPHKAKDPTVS

[10] = biological target: T7, Short transient receptor potential channel 4 (Mus musculus, UniProt Q9QUQ5); assay: mouse TRPC4 channel inhibitors, dose response, cell-based, HEK293 TRPC4/mu-opioid, Fluo-4 calcium (AID 434942); type: functional;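 further: potency of inhibitors blocking the TRPC4 calcium response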
T7 sequence (Q9QUQ5 whole entry): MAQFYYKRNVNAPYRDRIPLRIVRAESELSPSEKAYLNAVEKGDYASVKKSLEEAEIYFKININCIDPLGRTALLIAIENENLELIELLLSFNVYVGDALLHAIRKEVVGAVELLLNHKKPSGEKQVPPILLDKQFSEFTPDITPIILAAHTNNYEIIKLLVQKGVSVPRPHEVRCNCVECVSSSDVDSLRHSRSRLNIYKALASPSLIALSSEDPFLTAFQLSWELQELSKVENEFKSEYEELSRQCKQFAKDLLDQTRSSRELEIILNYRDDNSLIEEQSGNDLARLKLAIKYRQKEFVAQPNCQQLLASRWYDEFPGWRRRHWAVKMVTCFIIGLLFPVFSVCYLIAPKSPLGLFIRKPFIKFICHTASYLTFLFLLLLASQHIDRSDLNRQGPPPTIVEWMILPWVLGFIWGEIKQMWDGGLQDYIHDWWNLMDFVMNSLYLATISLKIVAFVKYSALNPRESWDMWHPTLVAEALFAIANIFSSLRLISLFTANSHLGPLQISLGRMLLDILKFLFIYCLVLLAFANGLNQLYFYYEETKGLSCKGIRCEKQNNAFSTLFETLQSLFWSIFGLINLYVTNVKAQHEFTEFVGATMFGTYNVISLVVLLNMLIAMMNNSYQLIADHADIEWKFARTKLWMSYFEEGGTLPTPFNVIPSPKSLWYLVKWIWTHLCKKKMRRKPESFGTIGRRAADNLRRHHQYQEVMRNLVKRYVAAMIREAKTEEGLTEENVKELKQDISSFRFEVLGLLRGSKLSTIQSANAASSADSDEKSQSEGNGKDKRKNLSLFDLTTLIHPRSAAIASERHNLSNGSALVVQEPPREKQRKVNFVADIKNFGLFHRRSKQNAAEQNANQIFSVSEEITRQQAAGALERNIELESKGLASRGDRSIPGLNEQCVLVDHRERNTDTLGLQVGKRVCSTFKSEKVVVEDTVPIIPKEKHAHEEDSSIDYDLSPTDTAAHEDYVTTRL

[11] = biological target: T8, Calpain-2 catalytic subunit (Sus scrofa, UniProt P43367); assay: pig calpain II inhibitor potency, dose response, biochemical, fluorogenic peptide substrate (AID 1420); type: functional
T8 sequence (P43367 whole entry): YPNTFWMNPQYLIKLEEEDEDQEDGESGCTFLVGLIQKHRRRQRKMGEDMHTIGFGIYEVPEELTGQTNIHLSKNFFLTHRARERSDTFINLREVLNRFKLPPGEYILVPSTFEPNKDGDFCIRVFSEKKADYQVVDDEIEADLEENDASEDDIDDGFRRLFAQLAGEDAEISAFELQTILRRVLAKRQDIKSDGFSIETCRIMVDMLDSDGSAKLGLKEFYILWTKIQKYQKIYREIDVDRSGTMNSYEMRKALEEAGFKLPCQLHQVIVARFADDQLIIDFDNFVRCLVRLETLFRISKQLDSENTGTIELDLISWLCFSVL

[12] = biological target: Beta-galactosidase (Escherichia coli, UniProt Q8VNN2); assay: PubChem AID 485352; type: functional
[13] = biological target: T9, Type-1 angiotensin II receptor (Homo sapiens, UniProt P30556); assay: AT1 receptor antagonists, dose response, selectivity assay for APJ receptor antagonist project, cell-based, uHTS hits (AID 463214); type: functional;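 further: antagonist potency against angiotensin II stimulated AT1 response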
T9 sequence (P30556 whole entry): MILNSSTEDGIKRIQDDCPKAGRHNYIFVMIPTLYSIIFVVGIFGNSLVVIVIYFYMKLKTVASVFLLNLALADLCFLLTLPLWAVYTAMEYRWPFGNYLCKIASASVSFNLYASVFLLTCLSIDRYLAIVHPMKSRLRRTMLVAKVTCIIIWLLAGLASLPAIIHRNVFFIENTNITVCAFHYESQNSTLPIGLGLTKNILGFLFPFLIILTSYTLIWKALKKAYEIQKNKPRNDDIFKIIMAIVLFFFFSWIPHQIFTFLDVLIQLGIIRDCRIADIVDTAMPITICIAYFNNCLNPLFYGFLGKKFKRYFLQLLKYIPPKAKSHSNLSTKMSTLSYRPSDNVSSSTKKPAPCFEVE

[14] = tested on: HEK293; assay: cytotoxicity in HEK293T NF-kB-Luc cells, SAR follow-up, cytotoxicity control for NF-kB activator project, cell-based, resazurin fluorescence (AID 493251); type: functional; conditions: Homo sapiens

T1 sequence (Q9UBE0 whole entry): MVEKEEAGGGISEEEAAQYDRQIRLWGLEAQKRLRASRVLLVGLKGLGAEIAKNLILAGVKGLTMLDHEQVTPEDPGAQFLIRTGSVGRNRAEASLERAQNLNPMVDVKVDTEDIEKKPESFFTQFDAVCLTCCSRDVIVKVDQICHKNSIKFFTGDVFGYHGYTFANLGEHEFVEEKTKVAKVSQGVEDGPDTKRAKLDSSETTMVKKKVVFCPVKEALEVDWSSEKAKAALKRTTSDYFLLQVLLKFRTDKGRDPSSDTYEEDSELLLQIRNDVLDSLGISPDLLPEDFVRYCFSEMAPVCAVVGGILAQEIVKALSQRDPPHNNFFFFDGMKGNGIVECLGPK
T1 sequence (Q9UBT2 whole entry): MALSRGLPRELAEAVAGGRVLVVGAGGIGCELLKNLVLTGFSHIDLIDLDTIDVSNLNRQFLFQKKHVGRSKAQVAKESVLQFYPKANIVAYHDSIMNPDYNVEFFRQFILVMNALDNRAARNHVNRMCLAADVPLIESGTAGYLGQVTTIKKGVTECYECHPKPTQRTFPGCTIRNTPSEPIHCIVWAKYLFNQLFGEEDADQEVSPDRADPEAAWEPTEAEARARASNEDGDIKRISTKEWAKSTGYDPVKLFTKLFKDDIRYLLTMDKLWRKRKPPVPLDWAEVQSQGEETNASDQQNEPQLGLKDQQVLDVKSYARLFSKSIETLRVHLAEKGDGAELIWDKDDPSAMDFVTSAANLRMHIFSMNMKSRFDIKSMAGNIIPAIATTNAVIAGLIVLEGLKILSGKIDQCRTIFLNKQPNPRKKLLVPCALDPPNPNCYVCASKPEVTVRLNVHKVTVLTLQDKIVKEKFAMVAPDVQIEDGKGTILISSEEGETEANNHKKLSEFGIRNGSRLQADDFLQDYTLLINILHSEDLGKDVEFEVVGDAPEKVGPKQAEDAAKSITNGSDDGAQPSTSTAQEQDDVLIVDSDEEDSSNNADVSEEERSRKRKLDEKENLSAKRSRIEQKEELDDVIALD
Beta-galactosidase, sequence (Q8VNN2 whole entry): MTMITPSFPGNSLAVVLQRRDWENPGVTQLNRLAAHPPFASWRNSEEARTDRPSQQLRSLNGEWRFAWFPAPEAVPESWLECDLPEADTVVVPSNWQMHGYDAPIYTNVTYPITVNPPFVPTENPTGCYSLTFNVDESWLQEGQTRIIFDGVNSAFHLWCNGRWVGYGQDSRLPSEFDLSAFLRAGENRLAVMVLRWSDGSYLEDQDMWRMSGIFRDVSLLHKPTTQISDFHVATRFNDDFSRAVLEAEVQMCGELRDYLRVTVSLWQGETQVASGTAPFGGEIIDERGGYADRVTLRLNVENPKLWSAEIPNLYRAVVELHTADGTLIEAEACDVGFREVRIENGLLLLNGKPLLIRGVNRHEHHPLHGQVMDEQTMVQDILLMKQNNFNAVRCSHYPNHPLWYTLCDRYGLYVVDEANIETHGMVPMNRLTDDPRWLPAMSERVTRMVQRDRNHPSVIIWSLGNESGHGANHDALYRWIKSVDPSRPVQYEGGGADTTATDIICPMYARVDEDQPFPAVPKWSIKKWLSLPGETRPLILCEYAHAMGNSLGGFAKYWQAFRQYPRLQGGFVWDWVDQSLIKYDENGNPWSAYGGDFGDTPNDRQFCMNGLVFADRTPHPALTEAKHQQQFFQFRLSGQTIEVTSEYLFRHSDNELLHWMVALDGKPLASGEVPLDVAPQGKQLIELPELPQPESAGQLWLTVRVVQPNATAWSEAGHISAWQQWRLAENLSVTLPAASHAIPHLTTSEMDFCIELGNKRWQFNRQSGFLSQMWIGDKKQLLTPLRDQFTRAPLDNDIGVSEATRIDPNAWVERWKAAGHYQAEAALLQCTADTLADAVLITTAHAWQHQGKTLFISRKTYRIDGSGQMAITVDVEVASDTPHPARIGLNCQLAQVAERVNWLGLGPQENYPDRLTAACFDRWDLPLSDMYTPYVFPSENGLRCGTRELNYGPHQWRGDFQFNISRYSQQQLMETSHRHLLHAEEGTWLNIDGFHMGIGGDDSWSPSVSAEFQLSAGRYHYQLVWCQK
Induced myeloid leukemia cell differentiation protein Mcl-1, sequence (Q07820 whole entry): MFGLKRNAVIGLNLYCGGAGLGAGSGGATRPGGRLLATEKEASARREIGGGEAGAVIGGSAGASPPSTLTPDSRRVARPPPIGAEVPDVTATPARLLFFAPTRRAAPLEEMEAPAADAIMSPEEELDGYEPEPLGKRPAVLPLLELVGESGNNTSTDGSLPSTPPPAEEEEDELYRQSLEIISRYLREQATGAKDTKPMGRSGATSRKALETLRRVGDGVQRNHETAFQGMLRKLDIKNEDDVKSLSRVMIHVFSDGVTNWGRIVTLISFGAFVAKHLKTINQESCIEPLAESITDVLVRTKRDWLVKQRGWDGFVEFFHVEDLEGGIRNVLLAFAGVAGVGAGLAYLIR

CC1=C(C#N)C(=O)NC(=O)/C1=C/c1ccc(-c2ccc(S(N)(=O)=O)cc2)o1
IC50 [1]: 1.59 µM (active)
IC50 [2]: 6.48 µM (active)
IC50 [3]: 25.7 µM (active)
EC50 [4]: > 300 µM (inconclusive)
EC50 [5]: > 300 µM (not active)

O=C(CSc1cc(Cl)ccc1Cl)NCC(=O)Nc1ccc(F)c(F)c1F
IC50 [6]: 15.6 µM (active)
IC50 [7]: 18.8 µM (active)
IC50 [8]: > 20 µM (inactive)
EC50 [9]: > 260 µM (inactive)

COc1cccc(O)c1CN1CCCC(C(=O)c2cccc(C(F)(F)F)c2)C1 (configuration not stated)
EC50 [10]: 2.11 µM (active)
IC50 [11]: 11.5 µM (not active)

CNC(=O)c1ccsc1NC(=O)C1CCCN1S(=O)(=O)c1cccs1 (configuration not stated)
IC50 [6]: 19.3 µM (active)
IC50 [7]: > 20 µM (inactive)
IC50 [8]: > 20 µM (inactive)

CC(=O)Nc1ccc(NC(=O)CCC(=O)OCC(=O)c2cccc([N+](=O)[O-])c2)cc1
EC50 [12]: > 40 µM (inactive)
IC50 [13]: 26 µM (not active)

O=C(Nc1nnc(SCc2ccc(F)cc2)s1)c1cnccn1
EC50 [12]: > 40 µM (inactive)
IC50 [13]: > 40 µM (not active)

CC(C)(C)c1ccc(-c2noc(CCC(=O)O)n2)cc1
IC50 [14]: > 80 µM (inactive)

CCOC(=O)c1c(C)c2c(n1C)CCC/C2=N\O
IC50 [6]: 19.5 µM (active)
IC50 [7]: 8.75 µM (active)
IC50 [8]: > 20 µM (inactive)
